Like-named read-outs stand apart in the source and are kept apart here. Marks after values point to notes of the source that are not given here.
Legend:
[1] = molecular target: T1, membrane fusion caused by SNARE (SNAP25, syntaxin 1A, VAMP2) (UniProt P60879+P63045+Q16623); assay: Membrane fusion assay with SNARE-reconstituted liposomes (fluorescence); type: biochemical; details: for remaining activity at 20 µM: read-out: Membrane fusion caused by SNARE (% of fusion without inhibitor); for Reduction of membrane fusion (in words): FIG. 3; for Ratio for inhibition by 50% (IR50), membrane fusion: molar concentration ratio phenolic compound:SNAP-25, average of at least three measurements
T1 construct: made in house; host or cells: E. coli (Codon (+) RIL, Novagen)
Description: In order to produce SNARE proteins, SNARE proteins, such as SNAP25 (NM011428), syntaxin 1A (AF217197), and VAMP2 (NM012663), were purified in biologically transformed E. coli (Codon (+) RIL, Novagen).
In order to prepare liposome (fine membrane) marked with a fluorescent substance, POPC (62 mol %), DOPS (35 mol %), NBD-PS (1.5 mol %) and a fluorescent substance Rhodamin-PE (1.5 mol %) were mixed to obtain 10 mM of liposome (v-vesicle). Also, in order to prepare a liposome not marked with a fluorescent substance, DOPS and POPC were mixed in a molar concentration ratio of 35:65 to obtain 50 mM of liposome (t-vesicle). In order to prepare a complex of the purified SNAP25 and syntaxin 1a, the SNAP25 and the syntaxin 1a were mixed in a molar concentration ratio of 1:1, and then were reacted at room temperature for 1 hour. Then, the resultant mixture and the liposome not marked with a fluorescent substance were mixed in a molar ratio of 100:1. The VAMP2 and the liposome marked with a fluorescent substance were mixed in a molar ratio of 50:1. Then, each of the two kinds of liposomes was dialyzed by using 10 kDa dialyzing membrane through agitation at 4° C. for 24 hours, and the liposomes were mixed in a ratio of 3:7 (v-vesicle t-visicle). Next, fluorescence was measured by using a fluorometer (SpectraMax M2 manufactured by Molecular Device).
Herein, 100% indicates the degree of membrane fusion in the state where no inhibitor was added. As the value is smaller, the inhibiting degree is higher.

[2] = molecular target: T2, SNARE complex (SNAP25, SynH3, Vps) (UniProt P60879+P63045+Q16623); assay: SDS-PAGE analysis of SNARE complex formation; type: biochemical; details: for SNARE complex formation (%): control = 100, footnote: [phenolic compound]:SNAP-25 = 1:1, SNARE proteins 10 μM each, polyphenol 100 μM, room temperature 30 min; for Inhibition of SNARE complex formation (in words): FIG. 2, concentration series; for Ratio for inhibition by 50% (IR50), SNARE complex formation: molar concentration ratio phenolic compound:SNAP-25, average of at least three measurements
T2 construct: SynH3 (AF217197); Vps (NM012663); made in house; host or cells: E. coli (Codon (+) RIL, Novagen)
Description: A SNARE complex is strong enough so as not to be untwisted by SDS. On the basis of such a property, a SDS-PAGE analysis was performed in order to determine the formation of a SNARE complex. Polyphenol compounds used in the present Example were purchased from Sigma-Aldrich, Wako Chemical, and Extrasynthese.
In order to produce SNARE proteins, SNARE proteins, such as, SNAP25 (NM011428), syntaxin 1A (AF217197), VAMP2 (NM012663), SynH3 (AF217197), and Vps (NM012663), were purified in biologically transformed E. coli (Codon (+) RIL, Novagen).
Then, the materials were quickly mixed by a vortex, and were reacted at room temperature for 30 minutes. […]

[3] = 20 μM phenolic compound, 100% = no inhibitor added

T1 sequence (P60879 whole entry, the tested form may be a part): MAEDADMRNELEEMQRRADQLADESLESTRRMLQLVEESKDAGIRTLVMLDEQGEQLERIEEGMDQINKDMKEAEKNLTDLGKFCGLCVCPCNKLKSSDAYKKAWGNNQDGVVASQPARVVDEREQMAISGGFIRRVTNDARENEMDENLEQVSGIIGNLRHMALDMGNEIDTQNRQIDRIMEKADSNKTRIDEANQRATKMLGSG
T1 sequence (Q16623 whole entry, the tested form may be a part): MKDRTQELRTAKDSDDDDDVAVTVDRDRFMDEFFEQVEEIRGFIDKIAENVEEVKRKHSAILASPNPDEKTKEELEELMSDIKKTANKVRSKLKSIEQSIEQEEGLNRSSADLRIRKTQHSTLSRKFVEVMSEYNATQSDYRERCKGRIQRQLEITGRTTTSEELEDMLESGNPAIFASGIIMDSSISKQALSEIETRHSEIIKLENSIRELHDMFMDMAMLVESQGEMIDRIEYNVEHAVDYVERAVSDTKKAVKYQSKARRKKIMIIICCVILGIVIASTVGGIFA
T1 sequence (P63045 whole entry, the tested form may be a part): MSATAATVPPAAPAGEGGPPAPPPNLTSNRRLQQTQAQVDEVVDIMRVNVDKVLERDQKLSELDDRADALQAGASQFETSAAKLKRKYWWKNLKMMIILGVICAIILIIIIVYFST
T2 sequence (P60879 whole entry): as the sequence (P60879 whole entry, the tested form may be a part) above
T2 sequence (Q16623 192-254 limits assumed): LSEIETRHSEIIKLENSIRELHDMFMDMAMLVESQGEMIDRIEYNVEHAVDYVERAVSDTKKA
T2 sequence (P63045 2-94 limits assumed): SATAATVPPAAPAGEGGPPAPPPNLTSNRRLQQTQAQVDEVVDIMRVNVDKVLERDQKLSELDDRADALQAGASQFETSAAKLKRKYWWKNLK

Row | Compound | SNARE complex formation (%) [2] [%] | remaining activity at 20 µM [1, 3] [%] | further results
1 | COc1ccc([C@@H]2CC(=O)c3c(O)cc(O[C@@H]4O[C@H](CO[C@@H]5O[C@@H](C)[C@H](O)[C@@H](O)[C@H]5O)[C@@H](O)[C@H](O)[C@H]4O)cc3O2)cc1O [Hesperidin] | 112.38 ± 10.43 | – | Membrane fusion caused by SNARE (% of fusion without inhibitor) [1, 3]: 124.11 ± 15.01%
2 | COc1cc(-c2[o+]c3cc(O)cc(O)c3cc2O)cc(OC)c1O [Malvidin] | 97.42 ± 6.31 | – | remaining activity at 20 µM [1]: 116 ± 5.97%
3 | Oc1ccc(-c2[o+]c3cc(O)cc(O)c3cc2O)cc1 [Pelargonidin] | 95.61 ± 3.10 | 92.4 ± 3.38 | –
4 | O=C(O)c1ccc(O)c(O)c1 [Protocatechuic acid] | 98.38 ± 4.56 | 104 ± 8.19 | –
5 | C[C@@H]1O[C@@H](Oc2c(-c3ccc(O)c(O)c3)oc3cc(O)cc(O)c3c2=O)[C@H](O)[C@H](O)[C@H]1O [Quercitrin] | 92.18 ± 9.59 | 86 ± 26.1 | –
6 | COc1cc(C(=O)O)cc(OC)c1O [Syringic acid] | 92.25 ± 5.92 | 78.2 ± 2.47 | –

More lines, main results first:

Row | SNARE complex formation (%) [2] [%] | remaining activity at 20 µM [1, 3] [%] | Compound | further results
7 | 100.13 ± 7.16 | 108 ± 5 | O=c1c(O)c(-c2ccc(O)cc2)oc2cc(O)cc(O)c12 [Kaempferol] | Reduction of membrane fusion (in words) [1]: can reduce membrane fusion; Ratio for inhibition by 50% (IR50), membrane fusion [1]: >20^b; Inhibition of SNARE complex formation (in words) [2]: inhibit the formation of a SNARE complex by 50% at a low concentration; Ratio for inhibition by 50% (IR50), SNARE complex formation [2]: >60^b
8 | 86.23 ± 8.14 | 65.5 ± 2.09 | O=c1cc(-c2ccc(O)c(O)c2)oc2cc(O)cc(O)c12 [Luteolin] | Reduction of membrane fusion (in words) [1]: can reduce membrane fusion; Ratio for inhibition by 50% (IR50), membrane fusion [1]: 4.02; Ratio for inhibition by 50% (IR50), SNARE complex formation [2]: 38.2
9 | 105.02 ± 11.37 | 107 ± 2.89 | C[C@@H]1O[C@@H](O[C@H]2[C@H](Oc3cc(O)c4c(c3)O[C@H](c3ccc(O)cc3)CC4=O)O[C@H](CO)[C@@H](O)[C@@H]2O)[C@H](O)[C@H](O)[C@H]1O [Naringin] | –
10 | 115.19 ± 23.74 | 86.3 ± 3.87 | O=C(CCc1ccc(O)cc1)c1c(O)cc(O)cc1O[C@@H]1O[C@H](CO)[C@@H](O)[C@H](O)[C@H]1O [Phloridzin] | –
11 | 79.80 ± 10.77 | 33.4 ± 2.24 | O=c1c(O)c(-c2ccc(O)c(O)c2)oc2cc(O)cc(O)c12 [Quercetin] | Reduction of membrane fusion (in words) [1]: can reduce membrane fusion; Ratio for inhibition by 50% (IR50), membrane fusion [1]: 2.87; Inhibition of SNARE complex formation (in words) [2]: inhibit the formation of a SNARE complex by 50% at a low concentration; Ratio for inhibition by 50% (IR50), SNARE complex formation [2]: 24.9
12 | 92.86 ± 9.53 | 96.7 ± 10.6 | C[C@@H]1O[C@@H](OC[C@H]2O[C@@H](Oc3c(-c4ccc(O)c(O)c4)oc4cc(O)cc(O)c4c3=O)[C@H](O)[C@@H](O)[C@@H]2O)[C@H](O)[C@H](O)[C@H]1O [Rutin] | –
13 | 107.60 ± 13.30 | 116 ± 5.52 | COc1cc2c(c(OC)c1OC)-c1c(cc(OC)c(OC)c1OC)C[C@](C)(O)[C@@H](C)C2 [Schizandrin] | –
14 | 106.78 ± 30.15 | 108 ± 10.6 | O=C(O)/C=C/c1ccccc1 [Trans-cinnamic acid] | –
15 | 97.23 ± 5.70 | 99.6 ± 7.63 | COc1cc(C(=O)O)ccc1O [Vanillic acid] | –
16 | 91.21 ± 11.99 | 123 ± 14.3 | O=C(O)/C=C/c1ccc(O)cc1 [p-Coumaric acid] | –

— patent US8263643B2, “Polyphenol compounds with modulating neurotransmitter release” (Sungkyunkwan University Foundation for Corporate …, priority 2007, dated 2012)
